ChEMBL document CHEMBL4316647, “Raistrickindole A, an Anti-HCV Oxazinoindole Alkaloid from Penicillium raistrickii IMB17-034” (J Nat Prod, 2019)

What was measured:
Enterococcus faecalis = test: Antibacterial activity against Enterococcus faecalis; type: functional
Staphylococcus aureus = test: Antibacterial activity against Staphylococcus aureus; type: functional
Hepatitis C virus = test: Antiviral activity against HCV infected in human Huh7.5 cells assessed as reduction in intracellular HCV RNA incubated for 72 hrs by real-time one-step reverse-transcription polymerase chain reaction assay; type: functional, organism-based, Hepacivirus hominis; conditions: Huh7.5, 72 h
[1] = Cytotoxicity against human Huh7.5 cells assessed as reduction in cell viability; type: cell-based
Pseudomonas aeruginosa = test: Antibacterial activity against Pseudomonas aeruginosa; type: functional
[2] = Selectivity index, ratio of CC50 for Cytotoxicity against human Huh7.5 cells to EC50 for antiviral activity against HCV infected in human Huh7.5 cells; type: toxicity, cell-based; conditions: read-out: Ratio CC50/EC50
A549 = test: Cytotoxicity against human A549 cells; type: functional, cell-based
HCT-116 = test: Cytotoxicity against human HCT116 cells; type: functional, cell-based
Escherichia coli = test: Antibacterial activity against Escherichia coli; type: functional
NCI-H460 = test: Cytotoxicity against human NCI-H460 cells; type: functional, cell-based

SMILES	MIC (Enterococcus faecalis)	MIC (Staphylococcus aureus)	EC50 (Hepatitis C virus)	MIC (Pseudomonas aeruginosa)	MIC (Escherichia coli)	CC50 [1]	selectivity ratio [2]	IC50 (A549)	IC50 (HCT-116)	IC50 (NCI-H460)
O=C1Cn2c(nc3ccccc3c2=O)-c2ccccc2N1	> 128 µg/mL	> 128 µg/mL	7 µM	> 128 µg/mL	> 128 µg/mL	> 200 µM	> 28	≥ 100 µM	≥ 100 µM	≥ 100 µM
O=C1NCc2nc3ccccc3c(=O)n2-c2ccccc21 [SCLEROTIGENIN]	> 128 µg/mL	> 128 µg/mL	5.8 µM	> 128 µg/mL	> 128 µg/mL	> 200 µM	> 35	≥ 100 µM	≥ 100 µM	≥ 100 µM
CCC[C@H](NC(=O)[C@@H]1[C@H]2CCC[C@H]2CN1C(=O)[C@@H](NC(=O)[C@@H](NC(=O)c1cnccn1)C1CCCCC1)C(C)(C)C)C(=O)C(=O)NC1CC1 [TELAPREVIR]	–	–	0.05 µM	–	–	25.8 µM	478	–	–	–

More lines, main results first:

MIC (Enterococcus faecalis)	MIC (Staphylococcus aureus)	EC50 (Hepatitis C virus)	MIC (Pseudomonas aeruginosa)	MIC (Escherichia coli)	SMILES	CC50 [1]	selectivity ratio [2]	IC50 (A549)	IC50 (HCT-116)	IC50 (NCI-H460)
> 128 µg/mL	> 128 µg/mL	5.7 µM	> 128 µg/mL	> 128 µg/mL	O=C1N[C@@H](Cc2ccccc2)C(=O)N2O[C@H]3Nc4ccccc4[C@@]3(O)C[C@@H]12	> 200 µM	> 35	≥ 100 µM	≥ 100 µM	≥ 100 µM
> 128 µg/mL	> 128 µg/mL	> 33.3 µM	> 128 µg/mL	> 128 µg/mL	O=C1N[C@@H](Cc2ccccc2)C(=O)N(O)[C@H]1C[C@]1(O)c2ccccc2N2C(=O)C[C@@H](c3ccccc3)N[C@H]21	88.4 µM	< 3	≥ 100 µM	≥ 100 µM	≥ 100 µM
